Values joined by “and” are separate entries in the source; they are usually repeats but may differ in a detail not shown here. Equal values may be shown once.
Tested on: carrageenan-induced mechanical hyperalgesia in rats
Test: Carrageenan-induced mechanical hyperalgesia, paw pressure test, time course to 240 min (Example 2)
Format: in vivo, male Sprague-Dawley rats
Conditions: for Effect on injured paw withdrawal threshold vs vehicle-treated group (in words): time course 30-240 min
Method: In this model, inflammation is induced by intraplantar injection of carrageenan (2%) into the right hindpaw of the rat. Three hours later, reaction thresholds are measured using the paw pressure test. Pressure is gradually applied to both hind paws (inflamed and control) of the rat, and reaction thresholds are determined as the pressure (g) required to elicit paw withdrawal or vocalization. Morphine (3 mg/kg, s.c.) was used as a positive control.
The experiments in this study used fifty (50) male Sprague-Dawley rats (SPF status, Janvier, France), each weighing 204-260 grams. The rats were housed in a temperature (20-24° C.) and relative humidity (45%-65%) controlled room and acclimated to an artificial day/night cycle of 12 hours light (6.30 a.m. to 6.30 p.m.)/12 hours darkness. Rats had free access to sterilized tap water and were fed ad libitum with pelleted complete diet (reference A04, S.A.F.E.). Rats were housed 4 per cage (cages Type E) and were acclimated for a period of at least 5 days before any testing. Each rat was identified by tail markings. Based on the SPF status of the animal facilities, there is no reason to expect that contaminants were present in the food, water or bedding, at levels capable of interfering with the results of the tests.
Pain Test: Static mechanical hyperalgesia was assessed using the Paw Pressure test or Randall & Selitto test (Randall, L. O. and Selitto, J. J., A method for measurement of analgesic activity on inflamed tissue, Arch Int Pharmacodyn, 1957(111): 409-419). This test requires the application of an increasing pressure on the hind paws between a flat surface and a blunt pointer. This test is usually used with animals with one hind paw inflamed by an injection or injured by ligation, and one normal hind paw, to evaluate drugs for analgesic action. The apparatus exerts a steadily increasing force and reaction threshold is determined as the pressure (g) required to elicit paw withdrawal and/or vocalization. In the experiment, animals were gently handled by the experimenter and static mechanical hyperalgesia was assessed. Each reaction threshold measurement was done for both hind paws.
Five (5) experimental groups of 10 rats each were used. Each group was first injected with of 100 μL of a 2% carrageenan suspension in the plantar aspect of the right hindpaw. Three hours after carrageenan injection, paw withdrawal threshold was measured using the paw pressure test (Baseline). The 5 groups were then administered the following: • Group 1: vehicle (0.5% HPMC), i.p., solution (negative control); • Group 2: MIN-117 (0.01 mg/kg, i.p.) in 0.5% HPMC, suspension; • Group 3: MIN-117 (0.1 mg/kg, i.p.) in 0.5% HPMC, suspension; • Group 4: MIN-117 (1 mg/kg, i.p.) in 0.5% HPMC, suspension; and • Group 5: morphine (3 mg/kg, s.c.) in 0.9% NaCl, solution (positive control).
After administering vehicle, MIN-117, or morphine, the antihyperalgesic effect of the compounds was evaluated using the paw pressure test at 0 min. (T0), 30 min., 60 min., 120 min., and 240 min.
Vehicle and MIN-117 were administered intraperitoneally at 10 mL/kg. Morphine was subcutaneously administered at 5 mL/kg. Dosing and testing were performed in a random order by a blinded experimenter except for the morphine-treated group. Doses were expressed in terms of free active substance. Rats were sacrificed at the end of the experiment by CO2 inhalation pending subsequent removal by a certified company.
Results were assessed as: the paw withdrawal threshold (mean±s.e.m.) in grams of contact pressure for each group, calculated from individual paw withdrawal thresholds; the percentage of variation of the paw withdrawal threshold calculated from the mean value of the vehicle-treated group; and/or the percentage of activity. To determine a statistical effect of the test substance and the reference substance, data were analyzed by a non-parametrical test. The significance level was p<0.05.

[1] = 1 mg/kg i.p., T0 (baseline before dosing)
[2] = 1 mg/kg i.p., T0 (baseline before dosing), hydrochloride
[3] = 1 mg/kg i.p., T0 + 30 min, hydrochloride

Cc1nnc(-c2cc3c(OC[C@@H](O)CN4CCC(c5ccc(Cl)c(Cl)c5)CC4)cccc3o2)o1.Cl [MIN-117, (2S)-1-(4-(3,4-dichlorophenyl)piperidin-1-yl)-3-((2-(5-methyl-1,3,4-oxadiazol-2-yl)benzofuran-4-yl)oxy)propan-2-ol hydrochloride]
Nociceptive threshold, injured paw (mean ± s.e.m.) (0.1 mg/kg i.p., T0 (baseline before dosing), hydrochloride): 178 ± 5.5 g and 178 g | % activity, injured paw (0.1 mg/kg i.p., T0 + 30 min): 3% | % variation vs control paw, injured paw (0.1 mg/kg i.p., T0 + 30 min): −48% | % variation vs pre-drug threshold, injured paw (0.1 mg/kg i.p., T0 + 30 min): 3% | % variation vs vehicle-treated group, injured paw (0.1 mg/kg i.p., T0 + 30 min): 3% | Nociceptive threshold, control paw (mean ± s.e.m.) (0.1 mg/kg i.p., T0 + 30 min): 354 g | Nociceptive threshold, injured paw (mean ± s.e.m.) (0.1 mg/kg i.p., T0 + 30 min, hydrochloride): 184 ± 5.0 g and 184 g | % activity, injured paw (0.1 mg/kg i.p., T0 + 60 min): −5% | % variation vs control paw, injured paw (0.1 mg/kg i.p., T0 + 60 min): −48% | % variation vs pre-drug threshold, injured paw (0.1 mg/kg i.p., T0 + 60 min): 1% | % variation vs vehicle-treated group, injured paw (0.1 mg/kg i.p., T0 + 60 min): −4% | Nociceptive threshold, control paw (mean ± s.e.m.) (0.1 mg/kg i.p., T0 + 60 min): 348 g | Nociceptive threshold, injured paw (mean ± s.e.m.) (0.1 mg/kg i.p., T0 + 60 min, hydrochloride): 180 ± 7.9 g and 180 g | % activity, injured paw (0.1 mg/kg i.p., T0 + 120 min): −5% | % variation vs control paw, injured paw (0.1 mg/kg i.p., T0 + 120 min): −50% | % variation vs pre-drug threshold, injured paw (0.1 mg/kg i.p., T0 + 120 min): 0% | % variation vs vehicle-treated group, injured paw (0.1 mg/kg i.p., T0 + 120 min): −4% | Nociceptive threshold, control paw (mean ± s.e.m.) (0.1 mg/kg i.p., T0 + 120 min): 354 g | Nociceptive threshold, injured paw (mean ± s.e.m.) (0.1 mg/kg i.p., T0 + 120 min, hydrochloride): 178 ± 7.6 g and 178 g | % activity, injured paw (0.1 mg/kg i.p., T0 + 240 min): −4% | % variation vs control paw, injured paw (0.1 mg/kg i.p., T0 + 240 min): −49% | % variation vs pre-drug threshold, injured paw (0.1 mg/kg i.p., T0 + 240 min): 1% | % variation vs vehicle-treated group, injured paw (0.1 mg/kg i.p., T0 + 240 min): −3% | Nociceptive threshold, control paw (mean ± s.e.m.) (0.1 mg/kg i.p., T0 + 240 min): 350 g | Nociceptive threshold, injured paw (mean ± s.e.m.) (0.1 mg/kg i.p., T0 + 240 min, hydrochloride): 180 ± 8.4 g and 180 g | Effect on injured paw withdrawal threshold vs vehicle-treated group (in words) (0.1 mg/kg i.p.): did not induce any significant increase | % activity, injured paw [1]: 3% | % variation vs control paw, injured paw [1]: −50% | % variation vs vehicle-treated group, injured paw [1]: 3% | Nociceptive threshold, control paw (mean ± s.e.m.) [2]: 374.0 ± 12.7 g and 374 g | Nociceptive threshold, injured paw (mean ± s.e.m.) [2]: 188 ± 9.0 g and 188 g | % activity, injured paw (1 mg/kg i.p., T0 + 30 min): 1% | % variation vs control paw, injured paw (1 mg/kg i.p., T0 + 30 min): −49% | % variation vs vehicle-treated group, injured paw (1 mg/kg i.p., T0 + 30 min): 1% | Nociceptive threshold, control paw (mean ± s.e.m.) (1 mg/kg i.p., T0 + 30 min): 356 g | % variation vs pre-drug threshold, injured paw [3]: −4% and 4% | Nociceptive threshold, injured paw (mean ± s.e.m.) [3]: 180 ± 7.3 g and 180 g | % activity, injured paw (1 mg/kg i.p., T0 + 60 min): 14% | % variation vs control paw, injured paw (1 mg/kg i.p., T0 + 60 min): −45% | % variation vs pre-drug threshold, injured paw (1 mg/kg i.p., T0 + 60 min): 13% | % variation vs vehicle-treated group, injured paw (1 mg/kg i.p., T0 + 60 min): 13% | Nociceptive threshold, control paw (mean ± s.e.m.) (1 mg/kg i.p., T0 + 60 min): 380 g | Nociceptive threshold, injured paw (mean ± s.e.m.) (1 mg/kg i.p., T0 + 60 min, hydrochloride): 212 ± 12.4 g and 212 g | % activity, injured paw (1 mg/kg i.p., T0 + 120 min): 29% | % variation vs control paw, injured paw (1 mg/kg i.p., T0 + 120 min): −41% | % variation vs pre-drug threshold, injured paw (1 mg/kg i.p., T0 + 120 min): 23% | Nociceptive threshold, control paw (mean ± s.e.m.) (1 mg/kg i.p., T0 + 120 min): 392 g | Nociceptive threshold, injured paw (mean ± s.e.m.) (1 mg/kg i.p., T0 + 120 min, hydrochloride): 232 ± 7.4 g and 232 g | % activity, injured paw (1 mg/kg i.p., T0 + 240 min): 1% | % variation vs control paw, injured paw (1 mg/kg i.p., T0 + 240 min): −49% | % variation vs pre-drug threshold, injured paw (1 mg/kg i.p., T0 + 240 min): 0% | % variation vs vehicle-treated group, injured paw (1 mg/kg i.p., T0 + 240 min): 1% | Nociceptive threshold, control paw (mean ± s.e.m.) (1 mg/kg i.p., T0 + 240 min): 370 g | Nociceptive threshold, injured paw (mean ± s.e.m.) (1 mg/kg i.p., T0 + 240 min, hydrochloride): 188 ± 6.1 g and 188 g | Effect on injured paw withdrawal threshold vs vehicle-treated group (in words) (1 mg/kg i.p.): slight increase in the nociceptive threshold becoming significant 120 min. after injection

Source: patent US11766430B2, “Methods of using a phenoxypropylamine compound to treat pain” (Minerva Neurosciences, Inc., priority 2018, dated 2023)
